The record followed here is PMC9501356, “New Sulfamethoxazole Derivatives as Selective Carbonic Anhydrase IX and XII Inhibitors: Design, Synthesis, Cytotoxic Activity and Molecular Modeling” (Pharmaceuticals, 2022).

Data set [1] has as its target T1, hCA II (Homo sapiens, UniProt P00918).
T1 construct: purchased BPS bioscience (CA, USA)
The data set can be described thus: CAII inhibitory assay (p-nitrophenyl acetate). It is filed as biochemical. The conditions noted are these: average ± SEM, three independent experiments; read-out: Carbonic Anhydrase IC50 (uM) hCA II. Here is the method:
CAII was assayed following the manufacturer’s instruction and reported method (Supplementary Material Section S2) (Table 2). […]
(§1) Carbonic Anhydrase (CA) catalyzes the reversible reaction of CO2 +
(§2) H2O = HCO3- + H+. […]
(§3) 400 nm[40] and the activity was calculated using the following equation: […]
= HCO3- + H+. […]
(§4) 96 well plate. […]
(§5) 400 nm[41] and the activity was calculated using the following equation: […]
S2.2.5. CAII inhibitory assay
CAII was assayed following the manufacturer’s instruction. A amount
of 1,400 pmol/min/µg assay mixture containing 100 mM NaCl, 15 mM Tris-

The target in data set [2] is T2, recombinant Human Carbonic Anhydrase I (Homo sapiens, UniProt P00915).
T2 construct: purchased R and D system (MN, USA)
In words: CA1 inhibitory assay (4-nitrophenyl acetate esterase). It is filed as biochemical. Particulars: average ± SEM, three independent experiments; read-out: Carbonic Anhydrase IC50 (uM) hCA I. Here is the method: The hCA I was assayed following the manufacturer’s instruction and reported method (Supplementary Material Section S2) (Table 2). […]
as §1
H2O = HCO3- + H+. Carbonic Anhydrase I (CAI) was measured following the manufacturer’s instruction. […]
as §3
S2.2.4. CA1 inhibitory assay
(§6) Carbonic Anhydrase (CA) cataly zes the reversible reaction of CO2 + H2O = HCO3- + H+. Carbonic Anhydrase I (CAI) was measured following the […]
Tris, 75 mM NaCl, pH 7.5). The substrate (4-Nitroph enyl acetate, 4NPA, 100 mM stock in acetone) was diluted in 2 mM in assay buffer. The reaction was started by adding 50 µL of 2 mM substrate with 50 µL of 100 ng/µL rhCAI in […]
as §4, §5

Data set [3] addresses T3, hCA IX (Homo sapiens, UniProt Q16790).
T3 construct: purchased BPS bioscience (CA, USA)
The data set can be described thus: hCA IX inhibitory assay. Type of data set: biochemical. The conditions noted are these: average ± SEM, three independent experiments; read-out: Carbonic Anhydrase (IC50, nM) CA-IX. Here is the method:
The hCA IX was assayed following the manufacturer’s instruction and reported method. (Table 1, Figure 3A,B) (Supplementary Material Section S2). […]
mixture was incubated for 30 min at room temperature and the absorbance was measured at 405nm.
(§7) S2.2.3. hCAXII inhibitory assay
as §1
H2O = HCO3- + H+. Carbonic Anhydrase I (CAI) was measured following the manufacturer’s instruction. In brief, recombinant Human
Carbonic Anhydrase XII (rh CAXII) was diluted to […] in assay buffer (12.5 mM Tris, 75 mM NaCl, pH 7.5). The substrate (4-Nitrophenyl acetate, 4NPA, 100 mM stock in acetone) was diluted in 2 mM in assay buffer. The reaction was started by adding 50 µL of 2 mM substrate with 50 µL of 20 ng/µL rhCAXII in 96 well plate. Substrate blank containing 50 µL of assay buffer and 50 µL of substrate was included. The kinetics for 5 min of the reaction mixtures were measured at wavelength of 400 nm[40] and the activity was calculated using the following equation: […]
as §6, §5
CAII was assayed following the manufacturer’s instruction. […] Incubate for 30 min at RT and the resulted absorbance was measured at 405 nm. […]

Data set [4] is described as follows: MTT cytotoxicity assay on MCF10a. Particulars: human, MCF10a normal breast cells, MCF10a normal breast cell line. Type of data set: cell-based. Here is the method:
(§8) Suppling, specification and incubation of MCF7 and MCF10a cell lines were carried out according to the method mentioned in detail in Supplementary Material Section S2.
(§9) MTT assay is a method used for in vitro cytotoxicity of different compounds. The method details are illustrated in Supplementary Material Section S2. […]
(§10) Carbonic Anhydrase (CA) catalyzes the reversible reaction of CO2 + […]
as §2
(§11) 400 nm[40] and the activity was calculated using the following equation: […] = HCO3- + H+. […]
as §4, §5
(§12) S2.2.6. Cell culture Protocol
(§13) MCF7 and MCF10a cell lines were obtained from American Type
(§14) Culture Collection, the cultured cells were grown using DMEM
(§15) (Invitrogen/Life Technologies) in 10% fetal bovine serum (FBS), 10 μg/ml of insulin (Sigma), and 1% penicillin-streptomycin antibiotics. Other chemicals and reag ents were from ob tained f rom S igma or In vitrogen. Cells d en sity was 1.2 – 1.8 × 10^3 cells/well in a volume of 100 µl complete growth medium + 100 μl of the tested compound/well in a 96-well plate for 24 hours performing […]
(§16) assay. After treatment of cells with the serial concentrations of the tested compounds, incubation for 48 h at 37 °C is carried out.
(§17) S2.2.7. MTT – Cytotoxicity assay protocol
(§18) MTT assay is a method used for in vitro cytotoxicity of different compounds. MTT vial was reconstituted in 3 ml growth media and diluted
(§19) MTT in an amount equal to 10% of the culture medium volume. After 4hrs incubation of the reagent with the treated MCF7 and MCF10a cells, culture media was removed from incubator and dissolve the resulting formazan crystals by adding an amount of MTT solubilizing solution equal volume with the original culture medium.
A general note: Tetrazolium assays rely on reduction of a dye to a coloured formazan, in cell work by metabolically active cells.

The subject of data set [5] is MCF7 cells. In words: MTT cytotoxicity assay on MCF7 (hypoxia and normoxia). Type of data set: cell-based. The conditions noted are these: Homo sapiens. Here is the method:
as §8, §9, §10, §2, §11, §4, §5, §12, §13, §14, §15, §16, §17
MTT assay is a method used for in vitro cytotoxicity of different compounds. […]

The test system of data set [6] is MCF10a cells. In words: MTT cytotoxicity assay on MCF10a. The conditions noted are these: MCF10a normal breast cell line. It is filed as cell-based. How it is done:
as §8, §9, §10, §2, §11, §4, §5, §12, §13, §14, §15, §16, §17, §18, §19

Data set [7] deals with T4, recombinant Human Carbonic Anhydrase XII (Homo sapiens, UniProt O43570).
T4 construct: purchased R and D system (MN, USA)
In words: hCA XII inhibitory assay (4-nitrophenyl acetate esterase). Type of data set: biochemical. The conditions noted are these: average ± SEM, three independent experiments; read-out: Carbonic Anhydrase (IC50, nM) CA-XII. Here is the method:
mixture was incubated for 30 min at room temperature and the absorbance […]
as §7, §1
H2O = HCO3- + H+. Carbonic Anhydrase I (CAI) was measured following the manufacturer’s instruction. In brief, recombinant Human […]
mM Tris, 75 mM NaCl, pH 7.5). The substrate (4-Nitrophenyl acetate, 4NPA, 100 mM stock in acetone) was diluted in 2 mM in assay buffer. The reaction was started by adding 50 µL of 2 mM substrate with 50 µL of 20 ng/µL rhCAXII in 96 well plate. Substrate blank containing 50 µL of assay buffer and 50 µL of substrate was included. The kinetics for 5 min of the reaction mixtures were measured at wavelength of 400 nm[40] and the activity was calculated using the following equation:
Specific Activity (pmol/min/µg) = Adjusted Vmax (OD/ mi n) x Conver sion Factor (pmol /OD) amount of enzyme (µg) S2.2.4. CA1 inhibitory assay
as §6
Tris, 75 mM NaCl, pH 7.5). The substrate (4-Nitroph enyl acetate, 4NPA, 100 mM stock in acetone) was diluted in 2 mM in assay buffer. The reaction was started by adding 50 µL of 2 mM substrate with 50 µL of 100 ng/µL rhCAI in 96 well plate. […]
as §5

In brackets after ≈: the same amount, converted by molar mass. Like-named read-outs stand apart in the source and are kept apart here.

T2 sequence (P00915 whole entry): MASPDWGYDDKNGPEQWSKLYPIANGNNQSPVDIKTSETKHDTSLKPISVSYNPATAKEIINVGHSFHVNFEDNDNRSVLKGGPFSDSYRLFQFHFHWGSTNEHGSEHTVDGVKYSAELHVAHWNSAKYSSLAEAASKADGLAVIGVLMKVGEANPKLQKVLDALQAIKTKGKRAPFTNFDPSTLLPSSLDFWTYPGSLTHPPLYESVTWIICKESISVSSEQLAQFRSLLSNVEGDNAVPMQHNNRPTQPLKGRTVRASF
T4 sequence (O43570 25-354): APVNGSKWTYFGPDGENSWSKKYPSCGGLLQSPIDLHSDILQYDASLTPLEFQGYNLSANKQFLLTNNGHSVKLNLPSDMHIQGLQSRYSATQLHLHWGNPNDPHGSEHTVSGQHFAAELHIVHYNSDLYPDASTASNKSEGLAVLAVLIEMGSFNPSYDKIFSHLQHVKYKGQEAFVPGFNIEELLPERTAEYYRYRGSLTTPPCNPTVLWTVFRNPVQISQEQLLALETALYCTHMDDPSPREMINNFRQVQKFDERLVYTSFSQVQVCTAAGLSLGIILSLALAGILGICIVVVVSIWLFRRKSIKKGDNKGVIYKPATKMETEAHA

In the case of `C=CCN(c1cc(C)on1)S(=O)(=O)c1ccc(N)cc1` [S2, N-Allyl-4-amino-N-(5-methylisoxazol-3-yl)benzenesulfonamide], the IC50 is 0.102 ± 0.006 µM in data set [1] and 0.177 ± 0.008 µM in data set [2].
For the molecule `CCCN(c1cc(C)on1)S(=O)(=O)c1ccc(N)cc1` [S3, 4-Amino-N-(5-methylisoxazol-3-yl)-N-propylbenzenesulfonamide], the IC50 in data set [1] turned out to be 0.199 ± 0.011 µM; in data set [3], 0.042 nM; in data set [2], 0.08 ± 0.003 µM.
Take `Cc1ccc(C(=O)Nc2ccc(S(=O)(=O)Nc3cc(C)on3)cc2)cc1` [S8, 4-Methyl-N-(4-(N-(5-methylisoxazol-3-yl)sulfamoyl)phenyl)benzamide]: the IC50 in data set [1] was 1.85 ± 0.12 µM; in data set [2], 1.02 ± 0.049 µM; in data set [5] (MCF7, MCF7, hypoxia, read-out: Cytotoxicity (IC50 µg/mL) MCF7 Hypoxia), 3.64 ± 0.2 µg/mL (≈ 9.8 µM); in data set [5] (MCF7, MCF7, normoxia, read-out: Cytotoxicity (IC50 µg/mL) MCF7 Normoxia), 7.68 ± 0.41 µg/mL (≈ 20.7 µM). The molecule further returned an IC50 at 48 h in data set [4] of 31.6 ± 1.71 µg/mL (≈ 85.2 µM).
In the case of `Cc1cc(NS(=O)(=O)c2ccc(NC(=O)c3ccc(Cl)cc3)cc2)no1` [S9, 4-Chloro-N-(4-(N-(5-methylisoxazol-3-yl)sulfamoyl)phenyl)benzamide], the IC50 in data set [1] was 0.543 ± 0.03 µM; in data set [2], 0.121 ± 0.006 µM. The “Cytotoxicity (IC50 µg/mL) MCF10a” value in data set [6] amounted to 46.72 ± 2.52 µg/mL. For the same molecule, the IC50 at 48 h in data set [4] amounted to 34.7 ± 1.87 µg/mL (≈ 88.6 µM).
For `Cc1ccc(/C=C2\SC(Nc3ccc(S(=O)(=O)Nc4cc(C)on4)cc3)=NC2=O)cc1` [S19, (Z)-4-((5-(4-Methylbenzylidene)-4-oxo-4,5-dihydrothiazol-2-yl)amino)-N-(5-methylisoxazol-3-yl)benzenesulfonamide], the IC50 in data set [7] stood at 0.9 nM.
